Laboratory results: US20260355171A1, “INHIBITORS AND USES THEREFOR” (priority 2022, published 2026)

Assays:
[1] = tested on: Delta variant of SARS-CoV-2
[2] = tested on: Omicron variant of SARS-CoV-2

NC(=O)C1CCN(c2ncccc2CNCc2cccc3[nH]ccc23)CC1 [Compound 22]
Titre of Delta variant [1]: Significant reduction of titres
Titre of Omicron variant [2]: Significant reduction of titres
